Results as given in patent US8802700B2 (Vertex Pharmaceuticals Incorporated, priority 2010, dated 2014).

Target: T1, ΔF508-CFTR (Homo sapiens, UniProt P13569, DEL508-508)
T1 construct: expressed in transfected cells
Test: Membrane potential optical assay (FRET voltage-sensor dyes, VIPR), identification of potentiator compounds
Format: cell-based
Details: Table 3, assay not given; for Emax: read-out: % Activity (% Efficacy, relative efficacy)
How it was run: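 NIH3T3 mouse fibroblasts stably expressing ΔF508-CFTR, cultured 24 h at 27 °C, were loaded with FRET voltage dyes CC2-DMPE and DiSBAC2(3). Double-addition format: first addition of Cl⁻-free (gluconate) medium with or without compound; membrane-potential change read as fluorescence on VIPR II.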

T1 sequence (P13569 with tags, fused parts or gaps DEL508-508): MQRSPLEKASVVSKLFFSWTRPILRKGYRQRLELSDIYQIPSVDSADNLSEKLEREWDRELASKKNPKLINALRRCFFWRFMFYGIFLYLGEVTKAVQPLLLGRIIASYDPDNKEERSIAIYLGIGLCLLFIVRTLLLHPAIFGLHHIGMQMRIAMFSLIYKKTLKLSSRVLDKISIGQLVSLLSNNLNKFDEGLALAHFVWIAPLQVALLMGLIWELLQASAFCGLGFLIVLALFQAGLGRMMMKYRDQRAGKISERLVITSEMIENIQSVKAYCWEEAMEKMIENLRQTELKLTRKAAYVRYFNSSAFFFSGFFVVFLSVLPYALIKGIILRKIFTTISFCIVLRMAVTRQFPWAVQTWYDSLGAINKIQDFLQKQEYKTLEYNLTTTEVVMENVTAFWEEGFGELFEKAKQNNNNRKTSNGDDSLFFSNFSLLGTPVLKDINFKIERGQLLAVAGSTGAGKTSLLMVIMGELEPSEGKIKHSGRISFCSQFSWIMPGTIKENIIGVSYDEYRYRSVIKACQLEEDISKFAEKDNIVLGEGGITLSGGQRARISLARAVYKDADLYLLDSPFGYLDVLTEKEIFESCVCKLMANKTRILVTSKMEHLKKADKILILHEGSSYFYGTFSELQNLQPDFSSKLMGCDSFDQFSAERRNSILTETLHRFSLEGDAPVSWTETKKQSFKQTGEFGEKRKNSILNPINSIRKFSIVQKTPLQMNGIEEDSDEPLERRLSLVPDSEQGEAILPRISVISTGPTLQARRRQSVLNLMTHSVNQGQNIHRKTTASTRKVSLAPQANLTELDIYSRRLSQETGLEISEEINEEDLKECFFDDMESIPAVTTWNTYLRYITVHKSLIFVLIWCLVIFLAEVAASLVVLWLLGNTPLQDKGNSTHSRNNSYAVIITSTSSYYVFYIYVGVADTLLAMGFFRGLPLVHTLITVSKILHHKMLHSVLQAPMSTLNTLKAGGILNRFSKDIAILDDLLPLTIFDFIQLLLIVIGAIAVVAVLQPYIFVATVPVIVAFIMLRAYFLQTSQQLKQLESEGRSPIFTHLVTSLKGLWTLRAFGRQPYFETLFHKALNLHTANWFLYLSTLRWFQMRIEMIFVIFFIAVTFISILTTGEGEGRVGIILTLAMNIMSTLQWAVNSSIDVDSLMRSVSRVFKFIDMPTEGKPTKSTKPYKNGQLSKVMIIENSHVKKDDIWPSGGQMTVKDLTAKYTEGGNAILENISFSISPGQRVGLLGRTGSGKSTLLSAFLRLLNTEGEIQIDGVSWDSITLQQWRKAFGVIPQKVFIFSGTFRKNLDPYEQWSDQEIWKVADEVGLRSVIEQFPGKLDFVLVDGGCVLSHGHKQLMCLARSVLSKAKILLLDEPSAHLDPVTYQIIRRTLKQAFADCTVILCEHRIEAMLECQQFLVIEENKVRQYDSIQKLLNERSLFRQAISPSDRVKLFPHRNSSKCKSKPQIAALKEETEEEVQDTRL

SMILES | Emax [%] | EC50 [µM]
O=C(Nc1cc(Cl)cc(NS(=O)(=O)CCN2CCCCC2)c1)c1c[nH]c2ccccc2c1=O [Compound 133, N-[3-chloro-5-[2-(1-piperidyl)ethylsulfonylamino]phenyl]-4-oxo-1H-quinoline-3-carboxamide] | 25 to 100 | 
C[S+]([O-])c1ccc(-c2ccccc2NC(=O)c2c[nH]c3ccccc3c2=O)cc1 (stereo not drawn) [Compound 134, N-[2-(4-methylsulfinylphenyl)phenyl]-4-oxo-1H-quinoline-3-carboxamide] | 25 to 100 | 
O=C(Nc1ccccc1-c1ccc2c(c1)OCO2)c1c[nH]c2ccccc2c1=O [Compound 135, N-(2-benzo[1,3]dioxol-5-ylphenyl)-4-oxo-1H-quinoline-3-carboxamide] | > 100 | 
CC(C)(C)c1cc(NC(=O)c2c[nH]c3ccccc3c2=O)c(O)c(C(C)(C)C)c1 [Compound 136, N-(2-hydroxy-3,5-ditert-butyl-phenyl)-4-oxo-1H-quinoline-3-carboxamide] | 25 to 100 | 
CN(c1ccc(F)cc1)S(=O)(=O)c1ccc2[nH]cc(C(=O)Nc3cc(O)c(C(C)(C)C)cc3C(C)(C)C)c(=O)c2c1 [Compound 137, 6-[(4-fluorophenyl)-methyl-sulfamoyl]-N-(5-hydroxy-2,4-ditert-butyl-phenyl)-4-oxo-1H-quinoline-3-carboxamide] | 25 to 100 | 
O=C(Nc1ccccc1-c1cc(F)cc(F)c1)c1c[nH]c2ccccc2c1=O [Compound 138, N-[2-(3,5-difluorophenyl)phenyl]-4-oxo-1H-quinoline-3-carboxamide] | 25 to 100 | < 10
O=C(Nc1ccccc1-c1ccc(Cl)cc1Cl)c1c[nH]c2ccccc2c1=O [Compound 139, N-[2-(2,4-dichlorophenyl)phenyl]-4-oxo-1H-quinoline-3-carboxamide] | 25 to 100 | < 10
O=C(Nc1ccc(C2CCCCC2)cc1)c1c[nH]c2ccccc2c1=O [Compound 140, N-(4-cyclohexylphenyl)-4-oxo-1H-quinoline-3-carboxamide] | 25 to 100 | < 10
CCOC(=O)Nc1cc(NC(=O)c2c[nH]c3ccccc3c2=O)ccc1C [Compound 141, [2-methyl-5-[(4-oxo-1H-quinolin-3-yl)carbonylamino]phenyl]aminoformic acid ethyl ester] | 25 to 100 | 
CCC(C)c1ccccc1NC(=O)c1c[nH]c2ccccc2c1=O (stereo not drawn) [Compound 142, 4-oxo-N-(2-sec-butylphenyl)-1H-quinoline-3-carboxamide] | 25 to 100 | 
CC(C)(C)c1cc(F)c(NC(=O)c2c[nH]c3ccccc3c2=O)cc1O [Compound 143, N-(2-fluoro-5-hydroxy-4-tert-butyl-phenyl)-4-oxo-1H-quinoline-3-carboxamide] | 25 to 100 | 
O=C(Nc1cccc(O)c1)c1c[nH]c2ccccc2c1=O [Compound 144, N-(3-hydroxyphenyl)-4-oxo-1H-quinoline-3-carboxamide] | 25 to 100 | 
CCOC(=O)c1cc(NC(=O)c2c[nH]c3ccccc3c2=O)cc2[nH]ccc12 [Compound 145, 6-[(4-oxo-1H-quinolin-3-yl)carbonylamino]-1H-indole-4-carboxylic acid ethyl ester] | 25 to 100 | < 10
O=C(Nc1cccn2ncnc12)c1c[nH]c2ccccc2c1=O [Compound 146, 4-oxo-N-(1,7,9-triazabicyclo[4.3.0]nona-2,4,6,8-tetraen-5-yl)-1H-quinoline-3-carboxamide] | < 25 | 
O=C(Nc1cccnc1Oc1ccc(F)cc1)c1c[nH]c2ccccc2c1=O [Compound 147, N-[2-(4-fluorophenoxy)-3-pyridyl]-4-oxo-1H-quinoline-3-carboxamide] | 25 to 100 | 
O=C(Nc1cc2[nH]ccc2cc1C(=O)N1CCCCC1)c1c[nH]c2ccccc2c1=O [Compound 148, 4-Oxo-N-[5-(1-piperidylcarbonyl)-1H-indol-6-yl]-1H-quinoline-3-carboxamide] | 25 to 100 | 
CCc1ccc(NC(=O)c2c[nH]c3ccccc3c2=O)cc1NC(C)=O [Compound 149, N-(3-acetylamino-4-ethyl-phenyl)-4-oxo-1H-quinoline-3-carboxamide] | 25 to 100 | 
